Values after ≈ are worked out from the molar mass of the structure shown. Like-named read-outs stand apart in the source and are kept apart here.
Legend:
[1] = tested on: B. subtilis X12; test: Bioautography of thin layer chromatography plate; format: cell-based; settings: bioautography of TLC plate of the reaction mixture against B. subtilis X12
Description: Apramycin (54 mg, 0.1 mmol) was dissolved in water (1 ml). Nickel acetate tetrahydrate (100 mg, 0.4 mmol) was added and this solution was diluted with dimethylformamide (5 mi). The mixture was treated with 1-iodo-n-butane (0.115 ml, 1 mmol) and this reaction mixture was stirred at room temperature for 4 days.

[2] = tested on: Staphylococcus aureus 3055; test: Subcutaneous therapy of experimental bacterial infection in mice; format: in vivo; settings: Staphylococcus aureus, 3055, sc, subcutaneous doses at 1 and 5 hours post infection, read-out: Effective dose (ED50)
Description: Table II illustrates the effective dose (ED50, effective dose to protect 50 percent of the test animals) for representative compounds of this invention against an experimental bacterial infection in mice.
The EDso values were determined as described by W. E. Wick et al., Journal of Bacteriology, 81 [No. 2], 233-235 (1961).

[3] = tested on: Escherichia coli TEM; test: MIC, standard agar dilution test; format: cell-based; settings: Escherichia coli, read-out: Minimum inhibitory concentration
Excerpt: (§1) The antibacterial activity of the deprotected compounds of this invention is illustrated by the following in vitro and in vivo test data obtained with representative compounds. In Table I, the minimum inhibitory concentration (MIC) for representative compounds against a wide range of gram-positive and gram-negative bacteria is presented. The MIC values were obtained by the standard agar dilution test.

[4] = tested on: Streptococcus group D 9960; test: MIC, standard agar dilution test; format: cell-based; settings: D9960, read-out: Minimum inhibitory concentration
Excerpt: as §1

[5] = tested on: Klebsiella pneumoniae KAE; test: MIC, standard agar dilution test; format: cell-based; settings: read-out: Minimum inhibitory concentration
Excerpt: as §1

[6] = tested on: Serratia marcescens SE3; test: MIC, standard agar dilution test; format: cell-based; settings: read-out: Minimum inhibitory concentration
Excerpt: as §1

[7] = tested on: Shigella sonnei N9; test: MIC, standard agar dilution test; format: cell-based; settings: read-out: Minimum inhibitory concentration
Excerpt: as §1

[8] = tested on: Enterobacter cloacae 265A; test: MIC, standard agar dilution test; format: cell-based; settings: read-out: Minimum inhibitory concentration
Excerpt: as §1

[9] = tested on: Proteus rettgeri C24; test: MIC, standard agar dilution test; format: cell-based; settings: Providencia rettgeri, read-out: Minimum inhibitory concentration
Excerpt: as §1

[10] = tested on: Serratia marcescens X99; test: MIC, standard agar dilution test; format: cell-based; settings: read-out: Minimum inhibitory concentration
Excerpt: as §1

[11] = tested on: Pseudomonas aeruginosa Ps18; test: MIC, standard agar dilution test; format: cell-based; settings: read-out: Minimum inhibitory concentration
Excerpt: as §1

[12] = tested on: Proteus rettgeri PR7; test: MIC, standard agar dilution test; format: cell-based; settings: Providencia rettgeri, read-out: Minimum inhibitory concentration
Excerpt: as §1

[13] = tested on: Streptococcus pneumoniae Park I; test: MIC, standard agar dilution test; format: cell-based; settings: Streptococcus pneumoniae; read-out: Minimum inhibitory concentration
Excerpt: as §1

[14] = tested on: Escherichia coli EC14; test: MIC, standard agar dilution test; format: cell-based; settings: read-out: Minimum inhibitory concentration
Excerpt: as §1

[15] = tested on: Staphylococcus aureus X1.1; test: MIC, standard agar dilution test; format: cell-based; settings: read-out: Minimum inhibitory concentration
Excerpt: as §1

[16] = tested on: Staphylococcus aureus V41; test: MIC, standard agar dilution test; format: cell-based; settings: read-out: Minimum inhibitory concentration
Excerpt: as §1

[17] = tested on: Hemophilus influenzae C.L.; test: MIC, standard agar dilution test; format: cell-based; settings: Haemophilus influenzae, read-out: Minimum inhibitory concentration
Excerpt: as §1

[18] = tested on: Pseudomonas aeruginosa X528; test: MIC, standard agar dilution test; format: cell-based; settings: read-out: Minimum inhibitory concentration
Excerpt: as §1

[19] = tested on: Salmonella typhimurium 1335; test: MIC, standard agar dilution test; format: cell-based; settings: Salmonella enterica, read-out: Minimum inhibitory concentration
Excerpt: as §1

[20] = tested on: Salmonella heidelberg X514; test: MIC, standard agar dilution test; format: cell-based; settings: Salmonella enterica, read-out: Minimum inhibitory concentration
Excerpt: as §1

[21] = tested on: Streptococcus group D X66; test: MIC, standard agar dilution test; format: cell-based; settings: DX66, read-out: Minimum inhibitory concentration
Excerpt: as §1

[22] = tested on: Proteus inconstans PR33; test: MIC, standard agar dilution test; format: cell-based; settings: Providencia alcalifaciens, read-out: Minimum inhibitory concentration
Excerpt: as §1

[23] = tested on: Pseudomonas aeruginosa X239; test: MIC, standard agar dilution test; format: cell-based; settings: read-out: Minimum inhibitory concentration
Excerpt: as §1

[24] = tested on: Escherichia coli N10; test: MIC, standard agar dilution test; format: cell-based; settings: read-out: Minimum inhibitory concentration
Excerpt: as §1

[25] = tested on: Enterobacter aerogenes X68; test: MIC, standard agar dilution test; format: cell-based; settings: Klebsiella aerogenes, read-out: Minimum inhibitory concentration
Excerpt: as §1

[26] = tested on: Staphylococcus epidermidis EPI1; test: MIC, standard agar dilution test; format: cell-based; settings: Staphylococcus epidermidis, EPI1; read-out: Minimum inhibitory concentration
Excerpt: as §1

[27] = tested on: Staphylococcus aureus X400; test: MIC, standard agar dilution test; format: cell-based; settings: read-out: Minimum inhibitory concentration
Excerpt: as §1

[28] = tested on: Enterobacter aerogenes EB17; test: MIC, standard agar dilution test; format: cell-based; settings: Klebsiella aerogenes, read-out: Minimum inhibitory concentration
Excerpt: as §1

[29] = tested on: Bordetella bronchiseptica 16; test: MIC, standard agar dilution test; format: cell-based; settings: read-out: Minimum inhibitory concentration
Excerpt: as §1

[30] = tested on: Klebsiella pneumoniae X26; test: MIC, standard agar dilution test; format: cell-based; settings: read-out: Minimum inhibitory concentration
Excerpt: as §1

[31] = tested on: Hemophilus influenzae 76; test: MIC, standard agar dilution test; format: cell-based; settings: Haemophilus influenzae, read-out: Minimum inhibitory concentration
Excerpt: as §1

[32] = tested on: Staphylococcus epidermidis EPI2; test: MIC, standard agar dilution test; format: cell-based; settings: read-out: Minimum inhibitory concentration
Excerpt: as §1

[33] = tested on: Enterobacter cloacae EB5; test: MIC, standard agar dilution test; format: cell-based; settings: read-out: Minimum inhibitory concentration
Excerpt: as §1

[34] = tested on: Streptococcus pyogenes C203; test: MIC, standard agar dilution test; format: cell-based; settings: read-out: Minimum inhibitory concentration
Excerpt: as §1

[35] = tested on: Staphylococcus aureus S13E; test: MIC, standard agar dilution test; format: cell-based; settings: Staphylococcus aureus, S13E, read-out: Minimum inhibitory concentration
Excerpt: as §1

[36] = tested on: Enterobacter aerogenes C32; test: MIC, standard agar dilution test; format: cell-based; settings: Klebsiella aerogenes, read-out: Minimum inhibitory concentration
Excerpt: as §1

[37] = tested on: Citrobacter freundii CF17; test: MIC, standard agar dilution test; format: cell-based; settings: read-out: Minimum inhibitory concentration
Excerpt: as §1

[38] = tested on: Proteus morganii PR15; test: MIC, standard agar dilution test; format: cell-based; settings: Morganella morganii, read-out: Minimum inhibitory concentration
Excerpt: as §1

Compound | zone of inhibition [1] | MIC [3] [µg/mL] | MIC [4] [µg/mL] | MIC [5] [µg/mL] | MIC [6] [µg/mL] | MIC [7] [µg/mL] | MIC [8] [µg/mL] | MIC [9] [µg/mL] | MIC [10] [µg/mL] | MIC [11] [µg/mL] | MIC [12] [µg/mL] | MIC [13] [µg/mL] | MIC [14] [µg/mL] | MIC [15] [µg/mL] | MIC [16] [µg/mL] | MIC [17] [µg/mL] | MIC [18] [µg/mL] | MIC [19] [µg/mL] | MIC [20] [µg/mL] | MIC [21] [µg/mL] | further results
2'-N-(n-Butyl)apramycin [Example 6] | a zone of inhibition | – | – | – | – | – | – | – | – | – | – | – | – | – | – | – | – | – | – | – | –
2'-N-Allylapramycin [Example 8] | a good zone of inhibition | – | – | – | – | – | – | – | – | – | – | – | – | – | – | – | – | – | – | – | –
2'-N-Benzylapramycin [Example 7] | a zone of inhibition | – | – | – | – | – | – | – | – | – | – | – | – | – | – | – | – | – | – | – | –
CNC1C(OC2OC(CO)C(N)C(O)C2O)OC2CC(NC(=O)CN)C(OC3C(N)CC(N)C(O)C3O)OC2C1O (centres unmarked) [Test compound 3, 2′-N-Glycylapramycin] | – | 8 (≈ 13.4 µM) | > 128 | 16 (≈ 26.8 µM) | 32 (≈ 53.6 µM) | 16 (≈ 26.8 µM) | 32 (≈ 53.6 µM) | 16 (≈ 26.8 µM) | 16 (≈ 26.8 µM) | 128 (≈ 215 µM) | 32 (≈ 53.6 µM) | 128 (≈ 215 µM) | 32 (≈ 53.6 µM) | 16 (≈ 26.8 µM) | 64 (≈ 107 µM) | 16 (≈ 26.8 µM) | 128 (≈ 215 µM) | 64 (≈ 107 µM) | 32 (≈ 53.6 µM) | > 128 | ED50 ([2]; challenged with 1794 LD50's): 30 mg/kg; MIC [22]: 32 µg/mL (≈ 53.6 µM); MIC [23]: 64 µg/mL (≈ 107 µM); MIC [24]: 64 µg/mL (≈ 107 µM); MIC [25]: 16 µg/mL (≈ 26.8 µM); MIC [26]: 16 µg/mL (≈ 26.8 µM); MIC [27]: 128 µg/mL (≈ 215 µM); MIC [28]: 16 µg/mL (≈ 26.8 µM); MIC [29]: 128 µg/mL (≈ 215 µM); MIC [30]: 8 µg/mL (≈ 13.4 µM); MIC [31]: 32 µg/mL (≈ 53.6 µM); MIC [32]: 8 µg/mL (≈ 13.4 µM); MIC [33]: 32 µg/mL (≈ 53.6 µM); MIC [34]: 64 µg/mL (≈ 107 µM); MIC [35]: 32 µg/mL (≈ 53.6 µM); MIC [36]: 16 µg/mL (≈ 26.8 µM); MIC [37]: 64 µg/mL (≈ 107 µM); MIC [38]: 128 µg/mL (≈ 215 µM)
CCNC1CC2OC(OC3OC(CO)C(N)C(O)C3O)C(NC)C(O)C2OC1OC1C(N)CC(N)C(O)C1O (centres unmarked) [Test compound 4, 2′-N-ethylapramycin] | – | 2 (≈ 3.52 µM) | > 128 | 8 (≈ 14.1 µM) | 16 (≈ 28.2 µM) | 8 (≈ 14.1 µM) | 32 (≈ 56.4 µM) | 8 (≈ 14.1 µM) | 8 (≈ 14.1 µM) | 32 (≈ 56.4 µM) | 8 (≈ 14.1 µM) | 16 (≈ 28.2 µM) | 8 (≈ 14.1 µM) | 4 (≈ 7.05 µM) | 8 (≈ 14.1 µM) | 16 (≈ 28.2 µM) | 64 (≈ 113 µM) | 8 (≈ 14.1 µM) | 16 (≈ 28.2 µM) | 128 (≈ 225 µM) | ED50 ([2]; challenged with 68.1 LD50's): < 4.35 mg/kg; MIC [22]: 8 µg/mL (≈ 14.1 µM); MIC [23]: 64 µg/mL (≈ 113 µM); MIC [24]: 8 µg/mL (≈ 14.1 µM); MIC [25]: 8 µg/mL (≈ 14.1 µM); MIC [26]: 8 µg/mL (≈ 14.1 µM); MIC [27]: 16 µg/mL (≈ 28.2 µM); MIC [28]: 8 µg/mL (≈ 14.1 µM); MIC [29]: 32 µg/mL (≈ 56.4 µM); MIC [30]: 4 µg/mL (≈ 7.05 µM); MIC [31]: 16 µg/mL (≈ 28.2 µM); MIC [32]: 2 µg/mL (≈ 3.52 µM); MIC [33]: 16 µg/mL (≈ 28.2 µM); MIC [34]: 16 µg/mL (≈ 28.2 µM); MIC [35]: 8 µg/mL (≈ 14.1 µM); MIC [36]: 8 µg/mL (≈ 14.1 µM); MIC [37]: 16 µg/mL (≈ 28.2 µM); MIC [38]: 32 µg/mL (≈ 56.4 µM)

— patent EP0048613B1, “4-0-Substituted -2-deoxystreptamine aminoglycoside derivatives, their preparation and formulations containing them” (ELI LILLY AND COMPANY, priority 1980, dated 1982)
